Experimental data: publication PMC7048748, “Anxiolytic Drug FGIN-1-27 Ameliorates Autoimmunity by Metabolic Reprogramming of Pathogenic Th17 Cells” (Scientific Reports, 2020)

Test system: Th17 cells
Assay: Lipidomics of Th17 cells
Format: cell-based, mouse
Set-up: key to nCE(16:0) / nCE(18:2) / nDCER(22:0) / nDCER[FA14:0] / nFFA(12:0) / nFFA(14:1) / nFFA(18:4) / nCE(22:0) / nCE(22:6) / nCE(24:1) / nCE[FA14:1] / nCE(12:0) / nCE[FA16:0] / nCE[FA17:0] / nCE[FA18:2] / nCE[FA22:6]: mole percent of each fatty acid within its lipid class
Procedure: Specific cholesterol precursors like desmosterol and oxysterols, such as 7β, 27-dihydroxycholesterol (7β, 27-OHC), have been identified as ligands for RORγt[21],[22] and shown to modulate Th17 differentiation. […] Next, we extended our studies to lipid metabolites and profiled the lipidome of Th17 cells treated with DMSO or FGIN-1-27.
(a) Quantitation of cholesterol esters, triacylglycerols (TAGs), phosphatidylethanolamine (PE) and phosphatidylcholine (PC) in Th17 cells 72 hours after treatment with FGIN-1-27. The error bars represent SD. (b) Heat map showing fatty acid composition (mole percent) for different lipid classes after treatment with FGIN-1-27. (c) Pie charts showing proportions of different fatty acid classes namely PUFAs, MUFAs, ODD and SFAs within the cholesterol esters. (d) Transcript analysis for CD5L 72 hours post treatment with FGIN-1-27. The error bars represent SD.
Th17 cells were differentiated from naïve purified CD4 T cells and treated with either FGIN-1-27 (10 µM) or DMSO during polarization. 10 million cells/treatment were harvested and snap frozen. […] The extracts were concentrated under nitrogen and reconstituted in 0.25 mL of dichloromethane:methanol (50:50) containing 10 mM ammonium acetate. The extracts were placed in vials for infusion-MS analyses, performed on a SelexION equipped Sciex 5500 QTRAP using both positive and negative mode electrospray. Each sample was subjected to 2 analyses, with IMS-MS conditions optimized for lipid classes monitored in each analysis. The 5500 QTRAP was operated in MRM mode to monitor the transitions for over 1,100 lipids from up to 14 lipid classes. Individual lipid species were quantified based on the ratio of signal intensity for target compounds to the signal intensity for an assigned internal standard of known concentration. Lipid class concentrations were calculated from the sum of all molecular species within a class, and fatty acid compositions were determined by calculating the proportion of individual fatty acids within each class.

`CCCCCCN(CCCCCC)C(=O)Cc1c(-c2ccc(F)cc2)[nH]c2ccccc12` [FGIN-1-27, N, N-di-n-hexyl 2-(4-fluorophenyl) indole-3-acetamide] was tested. Which “down-regulation of cholesterol esters” value (72 hours, 10 µM) did it give?
Its value is 5 folds.

What about the “reduction in triacylglycerides (TAGs)” value (72 hours, 10 µM) of the same molecule?
The value was 2 fold.

And the “MUFA proportion within the cholesterol esters” value (Fig. 6c pie chart)?
The value was 39%.

And the “ODD proportion within the cholesterol esters” value (Fig. 6c pie chart)?
The value was 10%.

And the “PUFA proportion within the cholesterol esters” value (Fig. 6c pie chart)?
Its value is 14%.

And the “SFA proportion within the cholesterol esters” value (Fig. 6c pie chart)?
The value was 37%.

And the nCE (Th17 cells, 10 µM)?
Its nCE is 0.3432.

And the “nCE(12:0)” value (Th17 cells, 10 µM)?
The value was 0.3209.

And the “nCE(14:0)” value (Th17 cells, 10 µM)?
The value was 7.863.

And the “nCE(14:1)” value (Th17 cells, 10 µM)?
The value was 0.8946.

What about the “nCE(15:0)” value (Th17 cells, 10 µM) of the same molecule?
The value was 6.739.

What about the “nCE(16:0)” value (Th17 cells, 10 µM) of the same molecule?
Its value is 20.165.

And the “nCE(16:1)” value (Th17 cells, 10 µM)?
Its value is 5.753.

And the “nCE(17:0)” value (Th17 cells, 10 µM)?
Its value is 3.887.

And the “nCE(18:0)” value (Th17 cells, 10 µM)?
The value was 9.753.

What about the “nCE(18:1)” value (Th17 cells, 10 µM) of the same molecule?
Its value is 25.3604.

And the “nCE(18:2)” value (Th17 cells, 10 µM)?
Its value is 6.676.

And the “nCE(18:3)” value (Th17 cells, 10 µM)?
The value was 0.6485.

What about the “nCE(18:4)” value (Th17 cells, 10 µM) of the same molecule?
Its value is 0.0392.

And the “nCE(20:0)” value (Th17 cells, 10 µM)?
Its value is 0.838.

And the “nCE(20:1)” value (Th17 cells, 10 µM)?
The value was 1.913.

And the “nCE(20:2)” value (Th17 cells, 10 µM)?
The value was 0.3245.

What about the “nCE(20:3)” value (Th17 cells, 10 µM) of the same molecule?
Its value is 0.8988.

What about the “nCE(20:4)” value (Th17 cells, 10 µM) of the same molecule?
The value was 3.812.

What about the “nCE(20:5)” value (Th17 cells, 10 µM) of the same molecule?
The value was 0.1401.

What about the “nCE(22:0)” value (Th17 cells, 10 µM) of the same molecule?
The value was 0.2674.

What about the “nCE(22:1)” value (Th17 cells, 10 µM) of the same molecule?
The value was 0.4486.

What about the “nCE(22:2)” value (Th17 cells, 10 µM) of the same molecule?
Its value is 0.3494.

And the “nCE(22:4)” value (Th17 cells, 10 µM)?
Its value is 0.2548.

And the “nCE(22:5)” value (Th17 cells, 10 µM)?
Its value is 0.2179.

And the “nCE(22:6)” value (Th17 cells, 10 µM)?
The value was 0.5711.

And the “nCE(24:0)” value (Th17 cells, 10 µM)?
The value was 0.624.

What about the “nCE(24:1)” value (Th17 cells, 10 µM) of the same molecule?
Its value is 1.24.

And the nCER (Th17 cells, 10 µM)?
The nCER was 0.6286.

And the “nCER(14:0)” value (Th17 cells, 10 µM)?
Its value is 0.8623.

What about the “nCER(16:0)” value (Th17 cells, 10 µM) of the same molecule?
Its value is 27.3543.

What about the “nCER(18:0)” value (Th17 cells, 10 µM) of the same molecule?
Its value is 2.572.

What about the “nCER(18:1)” value (Th17 cells, 10 µM) of the same molecule?
The value was 0.1145.

What about the “nCER(20:0)” value (Th17 cells, 10 µM) of the same molecule?
The value was 2.068.

What about the “nCER(20:1)” value (Th17 cells, 10 µM) of the same molecule?
The value was 0.05342.

And the “nCER(22:0)” value (Th17 cells, 10 µM)?
Its value is 7.074.

And the “nCER(22:1)” value (Th17 cells, 10 µM)?
Its value is 0.4579.

And the “nCER(24:0)” value (Th17 cells, 10 µM)?
The value was 30.2198.

What about the “nCER(24:1)” value (Th17 cells, 10 µM) of the same molecule?
The value was 28.2356.

What about the “nCER(26:0)” value (Th17 cells, 10 µM) of the same molecule?
Its value is 0.4655.

What about the “nCER(26:1)” value (Th17 cells, 10 µM) of the same molecule?
The value was 0.5227.

What about the “nCER[FA14:0]” value (Th17 cells, 10 µM) of the same molecule?
The value was 0.8623.

And the “nCER[FA16:0]” value (Th17 cells, 10 µM)?
Its value is 27.3543.

What about the “nCER[FA18:0]” value (Th17 cells, 10 µM) of the same molecule?
The value was 2.572.

And the “nCER[FA18:1]” value (Th17 cells, 10 µM)?
Its value is 0.1145.

What about the “nCER[FA20:0]” value (Th17 cells, 10 µM) of the same molecule?
The value was 2.068.

What about the “nCER[FA20:1]” value (Th17 cells, 10 µM) of the same molecule?
Its value is 0.05342.

And the “nCER[FA22:0]” value (Th17 cells, 10 µM)?
Its value is 7.074.

And the “nCER[FA22:1]” value (Th17 cells, 10 µM)?
The value was 0.4579.

What about the “nCER[FA24:0]” value (Th17 cells, 10 µM) of the same molecule?
The value was 30.2198.

What about the “nCER[FA24:1]” value (Th17 cells, 10 µM) of the same molecule?
Its value is 28.2356.

And the “nCER[FA26:0]” value (Th17 cells, 10 µM)?
The value was 0.4655.

And the “nCER[FA26:1]” value (Th17 cells, 10 µM)?
The value was 0.5227.

And the “nCE[FA12:0]” value (Th17 cells, 10 µM)?
Its value is 0.3209.

What about the “nCE[FA14:0]” value (Th17 cells, 10 µM) of the same molecule?
The value was 7.863.

And the “nCE[FA14:1]” value (Th17 cells, 10 µM)?
The value was 0.8946.

And the “nCE[FA15:0]” value (Th17 cells, 10 µM)?
Its value is 6.739.

What about the “nCE[FA16:0]” value (Th17 cells, 10 µM) of the same molecule?
The value was 20.165.

And the “nCE[FA16:1]” value (Th17 cells, 10 µM)?
The value was 5.753.

What about the “nCE[FA17:0]” value (Th17 cells, 10 µM) of the same molecule?
Its value is 3.887.

And the “nCE[FA18:0]” value (Th17 cells, 10 µM)?
Its value is 9.753.

And the “nCE[FA18:1]” value (Th17 cells, 10 µM)?
The value was 25.3604.

What about the “nCE[FA18:2]” value (Th17 cells, 10 µM) of the same molecule?
Its value is 6.676.

What about the “nCE[FA18:3]” value (Th17 cells, 10 µM) of the same molecule?
Its value is 0.6485.

What about the “nCE[FA18:4]” value (Th17 cells, 10 µM) of the same molecule?
The value was 0.0392.

What about the “nCE[FA20:0]” value (Th17 cells, 10 µM) of the same molecule?
Its value is 0.838.

What about the “nCE[FA20:1]” value (Th17 cells, 10 µM) of the same molecule?
The value was 1.913.

What about the “nCE[FA20:2]” value (Th17 cells, 10 µM) of the same molecule?
Its value is 0.3245.

And the “nCE[FA20:3]” value (Th17 cells, 10 µM)?
Its value is 0.8988.

What about the “nCE[FA20:4]” value (Th17 cells, 10 µM) of the same molecule?
The value was 3.812.

And the “nCE[FA20:5]” value (Th17 cells, 10 µM)?
Its value is 0.1401.

And the “nCE[FA22:0]” value (Th17 cells, 10 µM)?
Its value is 0.2674.

What about the “nCE[FA22:1]” value (Th17 cells, 10 µM) of the same molecule?
Its value is 0.4486.

What about the “nCE[FA22:2]” value (Th17 cells, 10 µM) of the same molecule?
Its value is 0.3494.

What about the “nCE[FA22:4]” value (Th17 cells, 10 µM) of the same molecule?
The value was 0.2548.

What about the “nCE[FA22:5]” value (Th17 cells, 10 µM) of the same molecule?
The value was 0.2179.

And the “nCE[FA22:6]” value (Th17 cells, 10 µM)?
The value was 0.5711.

What about the “nCE[FA24:0]” value (Th17 cells, 10 µM) of the same molecule?
The value was 0.624.

What about the “nCE[FA24:1]” value (Th17 cells, 10 µM) of the same molecule?
Its value is 1.24.

And the nDAG (Th17 cells, 10 µM)?
The nDAG was 2.149.

And the “nDAG(12:0/16:0)” value (Th17 cells, 10 µM)?
Its value is 0.1725.

What about the “nDAG(12:0/18:0)” value (Th17 cells, 10 µM) of the same molecule?
Its value is 0.3066.

And the “nDAG(12:0/18:1)” value (Th17 cells, 10 µM)?
The value was 0.3287.

And the “nDAG(12:0/18:2)” value (Th17 cells, 10 µM)?
The value was 0.07889.

And the “nDAG(14:0/14:0)” value (Th17 cells, 10 µM)?
The value was 0.8017.

And the “nDAG(14:0/16:0)” value (Th17 cells, 10 µM)?
Its value is 9.103.

And the “nDAG(14:0/16:1)” value (Th17 cells, 10 µM)?
The value was 1.239.

What about the “nDAG(14:0/18:1)” value (Th17 cells, 10 µM) of the same molecule?
Its value is 2.636.

What about the “nDAG(14:0/18:2)” value (Th17 cells, 10 µM) of the same molecule?
Its value is 0.1578.

What about the “nDAG(14:0/18:3)” value (Th17 cells, 10 µM) of the same molecule?
Its value is 0.01025.

And the “nDAG(14:0/20:0)” value (Th17 cells, 10 µM)?
The value was 0.2618.

And the “nDAG(14:0/20:4)” value (Th17 cells, 10 µM)?
Its value is 0.02818.

What about the “nDAG(14:0/22:6)” value (Th17 cells, 10 µM) of the same molecule?
Its value is 0.05137.

What about the “nDAG(14:1/16:0)” value (Th17 cells, 10 µM) of the same molecule?
Its value is 0.2729.

What about the “nDAG(14:1/18:1)” value (Th17 cells, 10 µM) of the same molecule?
The value was 0.217.

And the “nDAG(15:0/18:1)” value (Th17 cells, 10 µM)?
Its value is 0.2893.
